Assay results: patent US11110105B2, “Compounds, composition and uses thereof for treating cancer” (INSTITUT GUSTAVE ROUSSY, priority 2017, dated 2021)
Entries after “also recorded” stand apart in the source; their conditions may differ.

Legend:
[1] = test system: splicing of the Globin-SL8-intron gene product in B16F10 cells; assay: qRT-PCR of unspliced/spliced globin-SL8-intron RNA, B16F10; type: cell-based, mouse; conditions: 15 μM isoginkgetin, 35 μM IP2 or 35 μM M2P2, 48 hours
Experimental: RNA was extracted and qRT-PCR was performed with primers amplifying the unspliced (intron) and the spliced (exon) globin-SL8-intron RNA. Data are given as mean ±SEM of the ratio of 2^−ΔΔCt intron and 2^−ΔΔCt exon of at least three independent experiments. […] Data are express as mean ±SEM of the percentage of viable cells compared to the control condition of at least three independent experiments. *P<0.05, **P<0.01, ***P<0.001 (unpaired student t test).
In addition, it has been shown that cancer cells can acquire deficiencies in the splicing machinery that benefit their growth, for example by preventing the expression of tumor suppressor genes.

[2] = test system: MCA205 WT tumor; assay: Tumor challenge, MCA205 WT in immunocompetent C57BL/6 mice; type: in vivo, mouse; conditions: 18 mg/kg intraperitoneally, days 5, 10 and 15 (FIG. 11D)
Experimental: (A) Experimental settings. Growth of (B) sarcoma MCA205 or (C) melanoma B16F10 cells that both stably express the globin-SL8-intron construct or (D) MCA205 Wild Type (WT) or (E) B16F10 WT cells that were subcutaneously inoculated on the flank of immunocompetent C57BL/6 mice injected intraperitoneally with 12 mg/kg or 18 mg/kg of isoginkgetin at days 5, 10 and 15 after inoculation. Tumor size was assessed every 3 to 4 days until reaching the established ethical endpoints. Each line represents the tumor size in area (mm^2) of 6 mice in each group. Size in area (mm^2) of (F) MCA205 globin-SL8-intron, (G) B16F10 globin-SL8-intron, (H) MCA205 WT or (I) B16F10 WT tumors subcutaneously inoculated on the flank of immunodeficient Nu/Nu Nude mice injected intraperitoneally with 18 mg/kg of isoginkgetin at days 5, 10 and 15 after inoculation. Data are presented at the day before the endpoints are reached.
(§1) Data are given as mean ±SEM. *P<0.05, **P<0.01, ***P<0.001 (unpaired student t test). […] Tumor size was assessed every 3 to 4 days until reaching the established ethical endpoints. […]
The SL8 peptide has been widely shown to be highly immunogenic in vivo. […] At days 5, 10 and 15 after tumor inoculation, the mice were injected intraperitoneally with a define dose of isoginkgetin, and the tumor growth was monitored (FIG. 9A). […]

[3] = test system: mouse melanoma cell line B16F10; assay: B3Z SL8-specific T-cell activation assay, B16F10; type: cell-based; conditions: B16F10, Globin-intron-SL8; 15 μM or 35 μM
Experimental: B3Z SL8-specific T-cell activation after co-culture with (A) human melanoma A375, human lung carcinoma A549 or normal human lung fibroblast MRC5 cell lines, all transiently expressing the intron-derived SL8 peptide and the H2-K^b molecules and treated upstream with 2,5 μM or 6,25 μM isoginkgetin for 18 hours; or with (B) mouse sarcoma MCA205 or mouse melanoma B16F10 cell lines both transiently expressing the intron-derived SL8 peptide and treated upstream with 6,25 μM, 15 μM or 25 μM isoginkgetin for 18 hours. […]
as §1
MCA205 and B16F10 mouse cell lines are transfected with the plasmid YFP-Globin-SL8-intron or with the PCDNA3 empty plasmid (negative control) with the transfection reagent jetPRIME (Ozyme) or GeneJuice (Millipore) respectively according to each manufacturer protocol. […] Finally, the β-galactosidase activity is measured using the FLUOstar OPTIMA (BMG LABTECH Gmbh, Offenburg, Germany). Results are expressed as mean ±SEM. *P<0.05, **P<0.01, ***P<0.001 (unpaired student t test).

COc1ccc(-c2cc(=O)c3c(OC)cc(OP(=O)([O-])[O-])c(-c4cc(-c5cc(=O)c6c(OC)cc(OP(=O)([O-])[O-])cc6o5)ccc4OC)c3o2)cc1.[Na+].[Na+].[Na+].[Na+] [IM2P2]
splicing of Globin-SL8-intron RNA (ratio unspliced/spliced, qRT-PCR) [1]: does not impact splicing; also recorded: no impact
tumor growth [2]: did not impact tumor growth
intron-SL8-derived antigen presentation (B3Z activation) [3]: does not impact it
